{"source": "patent US20130165520A1", "about": "“Hybrid Molecule Having Mixed Retinoic Acid Receptor Agonism and Histone Deacetylase Inhibitory Properties” (priority 2010, published 2013)", "key": {"A549/ATCC": {"test_system": "A549/ATCC", "assay": "cells", "settings": "Homo sapiens, A549, 48 h"}, "NCI-H460": {"test_system": "NCI-H460", "assay": "cells", "settings": "Homo sapiens, NCI-H460, 48 h"}, "M14 [1]": {"test_system": "M14", "settings": "M14 (Melanoma); 48 h"}, "NCI-H322M": {"test_system": "NCI-H322M", "assay": "cells", "settings": "Homo sapiens, 48 h"}, "HOP-62": {"test_system": "HOP-62", "assay": "cells", "settings": "Homo sapiens, HOP-62, 48 h"}, "COLO205": {"test_system": "COLO205", "assay": "cells", "settings": "Homo sapiens, COLO 205, 48 h"}, "RPMI-8226": {"test_system": "RPMI-8226", "settings": "RPMI-8226 (Leukemia); 48 h"}, "SK-MEL-28": {"test_system": "SK-MEL-28", "assay": "cells", "settings": "Homo sapiens, SK-MEL-28, 48 h"}, "SF-268": {"test_system": "SF-268", "settings": "SF-268 (CNS); 48 h"}, "TK-10": {"test_system": "TK-10", "assay": "cells", "settings": "Homo sapiens, TK-10, 48 h"}, "MDA-MB-231/ATCC": {"test_system": "MDA-MB-231/ATCC", "assay": "cells", "settings": "Homo sapiens, MDA-MB-231, 48 h"}, "SF-295": {"test_system": "SF-295", "assay": "cells", "settings": "Homo sapiens, SF-295, 48 h"}, "LOX IMVI": {"test_system": "LOX IMVI", "assay": "cells", "settings": "Homo sapiens, 48 h"}, "NCI/ADR-RES [2]": {"test_system": "NCI/ADR-RES", "assay": "cells", "settings": "Homo sapiens, 48 h"}, "[3]": {"test_system": "normal human mammary epithelial cells (HMEC)", "assay": "Cell growth measurement", "type": "cell-based"}, "ACHN": {"test_system": "ACHN", "assay": "cells", "settings": "Homo sapiens, 48 h"}, "UACC-257": {"test_system": "UACC-257", "settings": "UACC-257 (Melanoma); 48 h"}, "PC-3": {"test_system": "PC-3", "assay": "cells", "settings": "Homo sapiens, PC-3, 48 h"}, "M14 [4]": {"test_system": "M14", "assay": "cells", "settings": "Homo sapiens, M14, 48 h"}, "SF-539": {"test_system": "SF-539", "assay": "cells", "settings": "Homo sapiens, SF-539, 48 h"}, "HL-60(TB)": {"test_system": "HL-60(TB)", "assay": "cells", "settings": "Homo sapiens, HL-60, 48 h"}, "OVCAR-4": {"test_system": "OVCAR-4", "settings": "48 h"}, "EKVX": {"test_system": "EKVX", "assay": "cells", "settings": "Homo sapiens, 48 h"}, "[5]": {"test_system": "RAR target genes in MDA-MB-231 cell line", "assay": "RT-qPCR analysis of RAR and HDACi target genes", "type": "cell-based", "source_text": "The agonist activity of 3 through its effects on RAR target genes was subsequently analyzed (FIG. 3)."}, "NCI/ADR-RES [6]": {"test_system": "NCI/ADR-RES", "settings": "48 h"}, "MDA-MB-468": {"test_system": "MDA-MB-468", "assay": "cells", "settings": "Homo sapiens, MDA-MB-468, 48 h"}}, "data": [{"smiles": "CC1(C)CCC(C)(C)c2cc(-c3ccc4cc(C(=O)NO)ccc4c3)ccc21", "note": "[hybrid 3]", "values": [{"measurement": "GI50", "setting": "A549/ATCC", "value": 0.473, "unit": "µM"}, {"measurement": "CC50", "setting": "A549/ATCC; read-out: LC50", "value": 7.8, "unit": "µM"}, {"measurement": "GI50", "setting": "NCI-H460", "value": 0.34, "unit": "µM"}, {"measurement": "CC50", "setting": "NCI-H460; read-out: LC50", "value": 4.04, "unit": "µM"}, {"measurement": "TGI", "setting": "M14 [1]", "value": 2.49, "unit": "µM"}, {"measurement": "GI50", "setting": "NCI-H322M", "value": 0.446, "unit": "µM"}, {"measurement": "CC50", "setting": "NCI-H322M; read-out: LC50", "value": 26.2, "unit": "µM"}, {"measurement": "GI50", "setting": "HOP-62", "value": 0.616, "unit": "µM"}, {"measurement": "CC50", "setting": "HOP-62; read-out: LC50", "value": 6.18, "unit": "µM"}, {"measurement": "GI50", "setting": "COLO205", "value": 0.797, "unit": "µM"}, {"measurement": "CC50", "setting": "COLO205; read-out: LC50", "value": 6.02, "unit": "µM"}, {"measurement": "TGI", "setting": "RPMI-8226", "value": 4.39, "unit": "µM"}, {"measurement": "GI50", "setting": "SK-MEL-28", "value": 1.81, "unit": "µM"}, {"measurement": "CC50", "setting": "SK-MEL-28; read-out: LC50", "value": 21.7, "unit": "µM"}, {"measurement": "TGI", "setting": "SF-268", "value": 1.85, "unit": "µM"}, {"measurement": "GI50", "setting": "TK-10", "value": 1.1, "unit": "µM"}, {"measurement": "CC50", "setting": "TK-10; read-out: LC50", "value": 25, "unit": "µM"}, {"measurement": "GI50", "setting": "MDA-MB-231/ATCC", "value": 1.2, "unit": "µM"}, {"measurement": "CC50", "setting": "MDA-MB-231/ATCC; read-out: LC50", "value": 12, "unit": "µM"}, {"measurement": "GI50", "setting": "SF-295", "value": 0.385, "unit": "µM"}, {"measurement": "CC50", "setting": "SF-295; read-out: LC50", "value": 6.11, "unit": "µM"}, {"measurement": "GI50", "setting": "LOX IMVI", "value": 0.372, "unit": "µM"}, {"measurement": "CC50", "setting": "LOX IMVI; read-out: LC50", "value": 4.19, "unit": "µM"}, {"measurement": "GI50", "setting": "NCI/ADR-RES [2]", "value": 0.502, "unit": "µM"}, {"measurement": "CC50", "setting": "NCI/ADR-RES [2]; read-out: LC50", "value": 5.34, "unit": "µM"}, {"measurement": "effect on growth of normal cells", "setting": "[3]", "value": "only minimal effects"}, {"measurement": "GI50", "setting": "ACHN", "value": 0.393, "unit": "µM"}, {"measurement": "CC50", "setting": "ACHN; read-out: LC50", "value": 5.09, "unit": "µM"}, {"measurement": "TGI", "setting": "UACC-257", "value": 7.34, "unit": "µM"}, {"measurement": "GI50", "setting": "PC-3", "value": 1.14, "unit": "µM"}, {"measurement": "CC50", "setting": "PC-3; read-out: LC50", "value": 21.5, "unit": "µM"}, {"measurement": "GI50", "setting": "M14 [4]", "value": 0.708, "unit": "µM"}, {"measurement": "CC50", "setting": "M14 [4]; read-out: LC50", "value": 7.43, "unit": "µM"}, {"measurement": "GI50", "setting": "SF-539", "value": 0.699, "unit": "µM"}, {"measurement": "CC50", "setting": "SF-539; read-out: LC50", "value": 30.9, "unit": "µM"}, {"measurement": "GI50", "setting": "HL-60(TB)", "value": 0.353, "unit": "µM"}, {"measurement": "CC50", "setting": "HL-60(TB); read-out: LC50", "value": 7.66, "unit": "µM"}, {"measurement": "TGI", "setting": "OVCAR-4", "value": 5.82, "unit": "µM"}, {"measurement": "GI50", "setting": "EKVX", "value": 0.686, "unit": "µM"}, {"measurement": "CC50", "setting": "EKVX; read-out: LC50", "value": 18.4, "unit": "µM"}, {"measurement": "regulation of HDACi-regulated genes RARB1 and CyclinD1", "setting": "[5]; MDA-MB-231", "value": "follow similar regulation"}, {"measurement": "induction of RAR target genes (RT-qPCR)", "setting": "[5]; MDA-MB-231 cell line", "value": "clear induction of RARB2 and DHRS3"}, {"measurement": "TGI", "setting": "NCI/ADR-RES [6]", "value": 1.76, "unit": "µM"}, {"measurement": "GI50", "setting": "MDA-MB-468", "value": 1.18, "unit": "µM"}, {"measurement": "CC50", "setting": "MDA-MB-468; read-out: LC50", "value": 6.39, "unit": "µM"}]}]}
